{"source": "patent US7893074B2", "about": "“2, 4-pyrimidinediamines useful in the treatment of neoplastic diseases, inflammatory and immune system disorders” (Novartis AG, priority 2003, dated 2011)", "key": {"[1]": {"test_system": "Mouse mammary carcinoma 4T1 cells", "test": "Anchorage-independent tumor cell growth assay", "type": "cell-based", "conditions": "Mus musculus, 4T1", "experimental": "Cells are cultured for 2 h and inhibitors are added at various concentrations in a final concentration of 0.1% DMSO. After 48 h, cell growth is assayed with the cell counting kit-8 (Wako Pure Chemical), which uses a water soluble tetrazolium salt WST8. Twenty μL of the reagent is added into each well and cells are further cultured for 2 h. The optical density is measured at 450 nm."}, "FAK": {"biological_target": "FAK (Mus musculus, UniProt P34152)", "sequence (P34152 2-1052)": "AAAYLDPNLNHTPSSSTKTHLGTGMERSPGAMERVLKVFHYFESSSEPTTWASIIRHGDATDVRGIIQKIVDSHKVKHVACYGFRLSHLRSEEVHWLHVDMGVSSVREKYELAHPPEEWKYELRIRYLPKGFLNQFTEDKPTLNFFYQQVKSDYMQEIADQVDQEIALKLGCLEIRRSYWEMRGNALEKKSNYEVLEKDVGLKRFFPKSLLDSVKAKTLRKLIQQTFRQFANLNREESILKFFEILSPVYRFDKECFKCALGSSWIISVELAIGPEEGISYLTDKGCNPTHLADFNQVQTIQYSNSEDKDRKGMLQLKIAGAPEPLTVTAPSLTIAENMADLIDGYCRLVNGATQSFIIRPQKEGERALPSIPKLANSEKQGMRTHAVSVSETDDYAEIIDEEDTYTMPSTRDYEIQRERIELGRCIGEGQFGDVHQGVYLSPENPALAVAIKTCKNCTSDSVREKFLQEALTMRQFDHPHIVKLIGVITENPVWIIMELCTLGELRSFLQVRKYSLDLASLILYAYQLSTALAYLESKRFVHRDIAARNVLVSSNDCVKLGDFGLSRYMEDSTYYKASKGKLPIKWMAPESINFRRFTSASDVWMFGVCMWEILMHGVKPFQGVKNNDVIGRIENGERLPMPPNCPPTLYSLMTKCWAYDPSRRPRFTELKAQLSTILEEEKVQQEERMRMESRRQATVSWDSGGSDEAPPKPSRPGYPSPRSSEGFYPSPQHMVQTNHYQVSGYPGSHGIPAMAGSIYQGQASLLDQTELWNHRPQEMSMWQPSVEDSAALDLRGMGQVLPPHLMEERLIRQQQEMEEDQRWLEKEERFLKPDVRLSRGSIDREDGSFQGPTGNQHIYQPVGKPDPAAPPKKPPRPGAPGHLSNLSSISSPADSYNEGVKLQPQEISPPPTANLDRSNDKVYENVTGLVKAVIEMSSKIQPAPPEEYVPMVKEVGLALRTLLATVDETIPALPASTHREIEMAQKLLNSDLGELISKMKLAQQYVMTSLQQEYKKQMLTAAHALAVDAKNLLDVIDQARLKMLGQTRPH", "test": "Phos IC50 (phosphorylation)", "type": "cell-based"}, "IGF-IR": {"biological_target": "IGF-IR (Homo sapiens, UniProt P08069)", "sequence (P08069 31-1367)": "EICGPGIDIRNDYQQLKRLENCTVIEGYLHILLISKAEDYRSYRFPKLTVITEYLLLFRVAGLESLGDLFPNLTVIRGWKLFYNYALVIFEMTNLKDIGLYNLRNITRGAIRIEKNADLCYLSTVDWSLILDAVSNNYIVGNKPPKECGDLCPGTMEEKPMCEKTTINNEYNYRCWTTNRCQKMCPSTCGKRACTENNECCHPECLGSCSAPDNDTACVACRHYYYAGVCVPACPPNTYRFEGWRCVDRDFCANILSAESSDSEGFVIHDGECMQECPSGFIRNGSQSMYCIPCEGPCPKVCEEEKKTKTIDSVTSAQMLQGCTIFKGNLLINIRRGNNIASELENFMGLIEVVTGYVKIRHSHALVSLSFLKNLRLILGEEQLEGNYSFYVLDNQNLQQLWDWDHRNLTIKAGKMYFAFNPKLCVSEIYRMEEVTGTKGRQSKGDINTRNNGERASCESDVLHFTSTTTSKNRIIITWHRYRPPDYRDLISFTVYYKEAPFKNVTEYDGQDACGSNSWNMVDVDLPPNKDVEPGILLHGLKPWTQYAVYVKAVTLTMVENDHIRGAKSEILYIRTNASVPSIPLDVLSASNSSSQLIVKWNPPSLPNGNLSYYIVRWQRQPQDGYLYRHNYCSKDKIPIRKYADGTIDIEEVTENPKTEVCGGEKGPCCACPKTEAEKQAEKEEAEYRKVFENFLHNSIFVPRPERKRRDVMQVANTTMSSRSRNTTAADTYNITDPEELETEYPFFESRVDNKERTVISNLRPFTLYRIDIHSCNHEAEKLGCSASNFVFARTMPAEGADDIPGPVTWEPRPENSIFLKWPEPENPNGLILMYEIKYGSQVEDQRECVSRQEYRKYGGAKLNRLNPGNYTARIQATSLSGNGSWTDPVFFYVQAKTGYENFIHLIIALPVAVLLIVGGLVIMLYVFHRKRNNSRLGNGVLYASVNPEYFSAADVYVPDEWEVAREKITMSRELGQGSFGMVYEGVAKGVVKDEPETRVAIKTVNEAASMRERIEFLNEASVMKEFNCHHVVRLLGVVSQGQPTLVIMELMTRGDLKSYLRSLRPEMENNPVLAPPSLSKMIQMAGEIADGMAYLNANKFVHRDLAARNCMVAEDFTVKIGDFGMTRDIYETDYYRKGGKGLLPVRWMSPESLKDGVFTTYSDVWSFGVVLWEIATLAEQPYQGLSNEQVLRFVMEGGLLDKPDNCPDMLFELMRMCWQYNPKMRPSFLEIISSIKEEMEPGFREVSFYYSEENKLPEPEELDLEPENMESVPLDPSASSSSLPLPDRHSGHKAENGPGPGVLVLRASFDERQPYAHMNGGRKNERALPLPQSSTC", "test": "Cellular Capture ELISA of IGF-I induced autophosphorylation of the IGF-IR", "type": "cell-based", "conditions": "read-out: IGF-1R IC50", "experimental": "In this assay the activity of the compounds of the invention against Insulin-like growth factor I (IGF-I) induced autophosphorylation of the IGF-IR is determined."}, "[2]": {"biological_target": "GST-ALK protein tyrosine kinase (Homo sapiens, UniProt Q9UM73)", "sequence (Q9UM73 1116-1392)": "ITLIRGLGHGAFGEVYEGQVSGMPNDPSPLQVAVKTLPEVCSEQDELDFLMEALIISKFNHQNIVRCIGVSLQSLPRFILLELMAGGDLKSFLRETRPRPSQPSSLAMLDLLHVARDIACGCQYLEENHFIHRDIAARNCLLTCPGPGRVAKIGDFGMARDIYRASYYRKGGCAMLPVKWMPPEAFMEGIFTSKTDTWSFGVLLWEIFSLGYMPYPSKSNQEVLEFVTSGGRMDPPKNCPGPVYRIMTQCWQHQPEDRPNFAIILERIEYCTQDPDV", "test": "In vitro enzyme assay using GST-ALK protein tyrosine kinase (filter binding assay)", "type": "biochemical", "conditions": "b80; assay not specified further; lower end printed as <0.5; read-out: IC50, inhibition of tyrosine kinase activity of anaplastic lymphoma kinase (ALK)", "experimental": "Assays are incubated for 10 min at ambient temperature. […] Following washing (0.5% H3PO4), plates are counted in a liquid scintillation counter. IC50 values are calculated by linear regression analysis of the percentage inhibition."}, "[3]": {"biological_target": "Focal Adhesion Kinase (FAK) (Homo sapiens, UniProt Q05397)", "sequence (Q05397 384-706)": "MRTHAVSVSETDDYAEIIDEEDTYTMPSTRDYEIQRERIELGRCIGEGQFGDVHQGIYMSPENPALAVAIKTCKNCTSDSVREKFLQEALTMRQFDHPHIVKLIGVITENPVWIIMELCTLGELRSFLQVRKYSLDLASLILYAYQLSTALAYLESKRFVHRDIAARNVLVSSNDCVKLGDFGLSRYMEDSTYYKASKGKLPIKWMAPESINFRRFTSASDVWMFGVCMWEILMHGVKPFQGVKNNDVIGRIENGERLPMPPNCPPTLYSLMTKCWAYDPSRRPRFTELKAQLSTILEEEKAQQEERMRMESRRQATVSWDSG", "test": "FAK assay system (Focal Adhesion Kinase inhibition)", "type": "biochemical", "conditions": "read-out: FAK IC50"}, "T Cell": {"test_system": "T Cell", "test": "T Cell Migration", "type": "cell-based", "conditions": "T-cell"}, "[4]": {"test_system": "human NPM-ALK overexpressing murine BaF3 cells", "test": "Growth inhibition of BaF3-NPM-ALK cells (Yopro staining)", "type": "cell-based", "conditions": "Mus musculus, 48 h; two days incubation", "from_the_text": "The expression of NPM-ALK is achieved by transfecting the BaF3 cell line with an expression vector pCIneo™ (Promega Corp., Madison Wis., USA) coding for NPM-ALK and subsequent selection of G418 resistant cells. Non-transfected BaF3 cells depend on IL-3 for cell survival. In contrast NPM-ALK expressing BaF3 cells (named BaF3-NPM-ALK hereinafter) can proliferate in the absence of IL-3 because they obtain proliferative signal through NPM-ALK kinase. Putative inhibitors of the NPM-ALK kinase therefore abolish the growth signal and result in antiproliferative activity. […] The inhibitory activity of the compounds of formula I is determined, briefly, as follows: BaF3-NPM-ALK cells (15,000/microtitre plate well) are transferred to 96-well microtitre plates. […] The growth of the BaF3-NPM-ALK cells is measured by means of Yopro™ staining [T Idziorek et al. J. Immunol. […] Cell lysis is completed within 60 min at room temperature and total amount of Yopro bound to DNA is determined by measurement using the Cytofluor II 96-well reader (PerSeptive Biosystems) with the following settings: Excitation (nm) 485/20 and Emission (nm) 530/25. IC50 values are determined by a computer-aided system using the formula: IC50=[(ABStest−ABSstart)/(ABScontrol−ABSstart)]×100. […]"}}, "note": "pIC50: −log10 of the molar value.", "data": [{"molecule": "CNC(=O)c1ccccc1Nc1nc(Nc2ccc(N3CCN4CCOC[C@H]4C3)cc2OC)ncc1Cl", "note": "[Example 7-15]", "values": [{"measurement": "pIC50", "setting": "[1]", "result": 6.72}, {"measurement": "pIC50", "setting": "FAK", "result": 7.22}, {"measurement": "pIC50", "setting": "IGF-IR", "result": 6.59}, {"measurement": "pIC50", "setting": "[2]", "result": "6.70 to 9.30"}, {"measurement": "pIC50", "setting": "[3]", "result": 8.35}]}, {"molecule": "CNC(=O)c1ccccc1Nc1nc(Nc2ccc(N3CCC(NC)C3)cc2OC)ncc1Cl", "note": "(stereo not drawn) [Example 7-12]", "values": [{"measurement": "pIC50", "setting": "[1]", "result": 6.00}, {"measurement": "pIC50", "setting": "T Cell", "result": 6.51}, {"measurement": "pIC50", "setting": "FAK", "result": 6.05}, {"measurement": "pIC50", "setting": "IGF-IR", "result": 6.21}, {"measurement": "pIC50", "setting": "[3]", "result": 8.72}]}, {"molecule": "CC(C)NS(=O)(=O)c1ccccc1Nc1nc(Nc2ccc(OC3CCN(C)CC3)cc2F)ncc1Cl", "note": "[Example 19-28]", "values": [{"measurement": "pIC50", "setting": "[1]", "result": 6.92}, {"measurement": "pIC50", "setting": "T Cell", "result": 6.52}, {"measurement": "pIC50", "setting": "FAK", "result": 7.00}, {"measurement": "pIC50", "setting": "IGF-IR", "result": 6.34}, {"measurement": "pIC50", "setting": "[3]", "result": 8.32}]}, {"molecule": "CNC(=O)c1ccccc1Nc1nc(Nc2ccc(N3CCOCC3)cc2OC)ncc1Cl", "note": "[2-[5-chloro-2-(2-methoxy-4-morpholin-4-yl-phenylamino)-pyrimidin-4-ylamino]-N-methyl-benzamide]", "values": [{"measurement": "pIC50", "setting": "[4]", "result": 7.01}]}, {"molecule": "CCCS(=O)(=O)c1ccccc1Nc1nc(Nc2ccc(N3CCC(N4CCCCC4)CC3)cc2OC)ncc1Cl", "note": "[Example 26-3]", "values": [{"measurement": "pIC50", "setting": "[1]", "result": 6.89}, {"measurement": "pIC50", "setting": "FAK", "result": 7.00}, {"measurement": "pIC50", "setting": "IGF-IR", "result": 6.64}, {"measurement": "pIC50", "setting": "[2]", "result": "6.70 to 9.30"}, {"measurement": "pIC50", "setting": "[3]", "result": 8.85}]}]}
